The values below come from US8242123B2, “Insecticidal methods using 4-amino-5-chloro-thieno[2,3-d]-pyrimidine compounds” (Merial Limited, priority 2006, dated 2012).

Holding throughout (format): in vivo
Experiment [1] deals with Silverleaf Whitefly (Bemisia argentifolii). The experiment can be described thus: Silverleaf whitefly, cotton cotyledon dip test. Particulars: for mortality at 100 ppm: Bemisia argentifolii, 72 h, 3 days after treatment, adults on cotton cotyledons, read-out: mortality compared to untreated controls (silverleaf whitefly); for biological activity (0% no activity to 100% total control), Bemesia argentifolia: 300 ppm, comparative test. The protocol:
(§1) In the following tests, if not precised otherwise, the formulated solutions of some of the compound examples were diluted to an active ingredient concentration of 300 ppm, and the diluted solutions were applied in the below mentioned tests.
(§2) The active compounds were formulated in 50:50 acetone:water and 100 ppm Kinetic™ surfactant.
Selected cotton plants were grown to the cotyledon state (one plant per pot). The cotyledons were dipped into the test solution to provide complete coverage of the foliage and placed in a well-vented area to dry. Each pot with treated seedling was placed in a plastic cup and 10 to 12 whitefly adults (approximately 3-5 day old) were introduced. The insects were colleted using an aspirator and an 0.6 cm, non-toxic TygonO tubing (R-3603) connected to a barrier pipette tip. The tip, containing the collected insects, was then gently inserted into the soil containing the treated plant, allowing insects to crawl out of the tip to reach the foliage for feeding. The cups were covered with a reusable screened lid (150 micron mesh polyester screen PeCap from Tetko Inc). Test plants were maintained in the holding room at about 25° C. and 20-40% relative humidity for 3 days avoiding direct exposure to the fluorescent light (24 hour photoperiod) to prevent trapping of heat inside the cup. Mortality was assessed 3 days after treatment of the plants.
(§3) The biological activity in tables B.1 and B.2 was evaluated on scale range from 0% as showing no biological activity to 100% as having total control. The comparative biological tests were conducted as described above.

For experiment [2], the system named is Bean Aphid (aphis fabae). The experiment can be described thus: Bean aphid, nasturtium plant dip test. As to conditions: 72 h, after 3 days, nasturtium plants dipped. The protocol: as §1, §2
Nasturtium plants grown in Metro mix in the 1st leaf-pair stage (variety ‘Mixed Jewle’) were infested with approximately 2-30 laboratory-reared aphids by placing infested cut plants on top of the test plants. The cut plants were removed after 24 hr. Each plant was dipped into the test solution to provide complete coverage of the foliage, stem, protruding seed surface and surrounding cube surface and allowed to dry in the fume hood. The treated plants were kept at about 25° C. with continuous fluorescent light. Aphid mortality was determined after 3 days.

Experiment [3] has as its system Rice Green Leafhopper (Nephotettix virescens). The experiment can be described thus: Rice green leafhopper, sprayed rice seedlings. Particulars: after 72 hours, 10 adults. The protocol: as §1
Rice seedlings were cleaned and washed 24 hours before spraying. The active compounds were formulated in 50:50 acetone:water, and 0.1% vol/vol surfactant (EL 620) was added. Potted rice seedlings were sprayed with 5 ml test solution, air dried, placed in cages and inoculated with 10 adults. Treated rice plants were kept at 28-29° C. and relative humidity of 50-60%. Percent mortality was recorded after 72 hours.

The test system of experiment [4] is Colorado Potato Beetle (Leptinotarsa decemlineata). The experiment in a line: Colorado potato beetle, potato leaf dip test. As to conditions: foliar, 120 h, 5 days after treatment, larvae on dipped potato leaves, read-out: mortality compared to untreated controls (Colorado potato beetle). The protocol:
as §1
Potato plants were utilized for bioassays. Excised plant leaves were dipped into 1:1 acetone/water dilutions of the active compounds. After the leaves had dried, they were individually placed onto water-moistened filter paper on the bottoms of Petri dishes.
Each dish was infested with 5-7 larvae and covered with a lid. Each treatment dilution was replicated 4 times. Test dishes were held at approximately 27° C. and 60% humidity. Numbers of live and morbid larvae were assessed in each dish at 5 days after treatment application, and mortality percentage was calculated.

Experiment [5] concerns Rice Plant Hopper (Nilaparvata lugens). The experiment in a line: Rice plant hopper, sprayed rice seedlings. Particulars: for mortality at 100 ppm: Nilaparvata lugens, after 72 hours, rice seedlings sprayed, 10 adults; for biological activity (0% no activity to 100% total control), Nilaparvata lugens: 300 ppm, comparative test. The protocol: as §1
Rice seedlings were cleaned and washed 24 hours before spraying. The active compounds were formulated in 50:50 acetone:water and 0.1% vol/vol surfactant (EL 620) was added. Potted rice seedlings were sprayed with 5 ml test solution, air dried, placed in cages and inoculated with 10 adults. Treated rice plants were kept at 28-29° C. and relative humidity of 50-60%. Percent mortality was recorded after 72 hours.
as §3

Experiment [6] deals with Cowpea Aphid (aphis craccivora). The experiment can be described thus: Cowpea aphid, sprayed potted cowpea plants. As to conditions: population reduction recorded after 24, 72 and 120 hours. The protocol: as §1
The active compounds were formulated in 50:50 acetone:water. Potted cowpea plants colonized with 100-150 aphids of various stages were sprayed after the pest population has been recorded. Population reduction was recorded after 24, 72, and 120 hours.

The test system of experiment [7] is Southern Armyworm (spodoptera eridania), 2nd-3rd Instar Larvae. The experiment in a line: Southern armyworm, lima bean foliage dip test. Particulars: for biological activity (0% no activity to 100% total control), Spodoptera eridania: 300 ppm, comparative test. The protocol: as §1
The active compounds were formulated as a 10.000 ppm solution in a mixture of 35% acetone and water, which was diluted with water, if needed.
Sieva lima bean foliage, expanded to the first true leaves, were dipped and agitated in the test solution for 3 seconds and then allowed to dry in a fume hood. The treated plant was then placed in 25-cm plastic perforated zip enclosure bags, ten 2nd-instar larvae were added, and the bags sealed. After 4 days, observations were made of mortality, plant feeding, and of any interference with larval growth.
as §3

For experiment [8], the system named is Cotton Aphid (aphis gossypii), Mixed Life Stages. The experiment can be described thus: Cotton aphid, mixed life stages, infested cotyledon dip test. Particulars: 300 ppm; comparative test. The protocol:
as §1
The active compounds were formulated in 50:50 acteone/water and 100 ppm Kinetic™ surfactant
Cotton plants at the cotyledon stage were infested prior to treatment by placing a heavily infested leaf from the main aphid colony on top of each cotyledon. The aphids were allowed to transfer overnight and the host leaf was removed. The infested cotyledons were then dipped and agitated in the test solution for 3 seconds and allowed to dry in a fume hood. Test plants were maintained under fluorescent lighting in a 24-hr photoperiod at 25° C. and 20-40% relative humidity. Aphid mortality on the treated plants, relative to mortality on untreated check plants, was determined after 5 days.
as §3

Experiment [9] concerns Green Peach Aphid (Myzus persicae), Mixed Life Stages. The experiment in a line: Green peach aphid, mixed life stages, bell pepper leaf dip test. As to conditions: 300 ppm; comparative test. The protocol:
as §1
Bell pepper plants at the first true-leaf stage were infested prior to treatment by placing heavily infested leaves from the main aphid colony on top of the treatment plants. The aphids were allowed to transfer overnight to accomplish an infestation of 30-40 aphids per plant and the host leaves were removed. The infested leaves of the test plants were then dipped and agitated in the test solution for 3 seconds and allowed to dry in a fume hood. Test plants were maintained under fluorescent lighting in a 24-hr photoperiod at 25° C. and 20-40% relative humidity. Aphid mortality on the treated plants, relative to mortality on untreated check plants, was determined after 5 days.
as §3

`CC(Nc1ncnc2scc(Cl)c12)c1ccc(OC(F)(F)F)cc1` (centres unmarked) [Compound 2, (5-Chloro-thieno[2,3-d]pyrimidin-4-yl)-[1-(4-trifluoromethoxy-phenyl)-ethyl]-amine]: the mortality at 100 ppm is at least 90% in [1]; at least 60% in [2]; at least 60% in experiment [3]; at least 90% in [4]; at least 90% in experiment [5]; at least 75% in experiment [6].
With `FC(F)(F)Oc1ccc(CCNc2ncnc3scc(Cl)c23)cc1` [Compound 5, (5-Chloro-thieno[2,3-d]pyrimidin-4-yl)-[2-(4-trifluoromethoxy-phenyl)-ethyl]-amine], the mortality at 100 ppm in experiment [1] is at least 90%; in experiment [7] (Spodoptera eridania, foliar, 96 h, 100 ppm, after 4 days, lima bean foliage dipped, read-out: mortality in comparison with untreated controls (southern armyworm)) it was at least 60%; in experiment [3], at least 60%; in [4], at least 90%; in [5] it was at least 90%; in [6], at least 75%.
Turning to `CC(C)(C)[C@H]1CC[C@@H](Nc2ncnc3scc(Cl)c23)CC1` [Compound 6, cis-(4-tert-Butyl-cyclohexyl)-(5-chloro-thieno[2,3-d]pyrimidin-4-yl)-amine], the mortality at 100 ppm in experiment [1] is at least 90%; in experiment [2], at least 60%; in experiment [3], at least 60%; in experiment [4], at least 90%; in [5] it was at least 90%; in experiment [6] it was at least 75%.
Turning to `CC(C)(C)[C@H]1CC[C@@H](Nc2ncnc3scc(Cl)c23)CC1` [drawing 15], the “biological activity (0% no activity to 100% total control), Bemesia argentifolia” value in [1] is listed as 100%. In addition, the “biological activity (0% no activity to 100% total control), Aphis gossypii” value in [8] is on record as 100%. Moreover, the “biological activity (0% no activity to 100% total control), Myzus persicae” value in experiment [9] was 100%. Also, the “biological activity (0% no activity to 100% total control), Spodoptera eridania” value in experiment [7] is on record as 100%. For the same compound, the “biological activity (0% no activity to 100% total control), Nilaparvata lugens” value in experiment [5] was determined as 100%.
For `[H][C@H]1CC[C@H](Nc2ncnc3scc(Cl)c23)CC1` [reference compound], the “biological activity (0% no activity to 100% total control), Bemesia argentifolia” value in experiment [1] is reported as 0%. Further, in experiment [8], the “biological activity (0% no activity to 100% total control), Aphis gossypii” value was determined as 75%. For the same compound, the “biological activity (0% no activity to 100% total control), Myzus persicae” value in [9] was found to be 50%. Also, the “biological activity (0% no activity to 100% total control), Spodoptera eridania” value in [7] stood at 0%. In [5], the “biological activity (0% no activity to 100% total control), Nilaparvata lugens” value worked out at 0%.
For the compound `C[C@H](Nc1ncnc2scc(Cl)c12)c1ccccc1` [reference compound], the “biological activity (0% no activity to 100% total control), Bemesia argentifolia” value in experiment [1] was 0%. The “biological activity (0% no activity to 100% total control), Aphis gossypii” value in [8] worked out at 100%. Also, the “biological activity (0% no activity to 100% total control), Myzus persicae” value in experiment [9] was found to be 100%. The “biological activity (0% no activity to 100% total control), Nilaparvata lugens” value in experiment [5] worked out at 0%.

The mortality is the percentage killed.
